Reference: PubChem BioAssay (NCI)
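Dose response: 5 concentrations. Exposure: 48 h. Format: 96-well plates. Endpoint: linear interpolation; highest concentration if not reached. At the TGI there is no net growth.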 Where a SMILES comes first, the peptide text is derived from it. [ ]: non-standard residue; d: D form. The star is where a group is joined. Cbz = O=C(OCc1ccccc1)*; Aib = CC(C)(N)C(=O)O; OBn = c1ccc(CO*)cc1

How the values were obtained:
Experiment in all cases: NCI-60 cell line screen, 48 h
[1] = system: HT29 colon
[2] = system: OVCAR-8 ovarian
[3] = system: OVCAR-4 ovarian
[4] = system: EKVX NSCLC
[5] = system: HL-60(TB) leukemia
[6] = system: NCI-H522 lung
[7] = system: IGROV1 ovarian
[8] = system: SF-268 CNS
[9] = system: BT-549 breast
[10] = system: UACC-257 melanoma

Structure (SMILES)	TGI [1] [µM]	TGI [2] [µM]	TGI [3] [µM]	TGI [4] [µM]	TGI [5] [µM]	TGI [6] [µM]	TGI [7] [µM]	TGI [8] [µM]	TGI [9] [µM]	TGI [10] [µM]
CN1CC[C@]2(c3cccc(O)c3)CC(=O)/C(=C/c3ccccc3)[C@@H]1C2	7.55	10.5	16.9	20.2	5.33	11.2	14.6	10.4	7.27	11.7
CC(C)(CO)CNc1nc(N)nc(Cl)c1/C=N/O	> 100	> 100	> 100	> 100	> 100	> 100	90.8	> 100	> 100	> 100
CC(NC(=O)C(C)(C)NC(=O)C(CC(=O)OCc1ccccc1)NC(=O)OCc1ccccc1)C(N)=O (stereo not drawn) (Cbz-Asp(OBn)-[Aib]-Ala-NH2; configuration not given here)	> 100	> 100	> 100	> 100	> 100	> 100	> 100	> 100	> 100	> 100
Cn1c2ccccc2c2c(=S)c3ccccc3ccc21	> 100	> 100	> 100	> 100	> 100	> 100	> 100	> 100	> 100	> 100
CCOC(=O)c1c2cccccc-2nc1Nc1cccc2c(C)ccnc12	> 10	> 10	> 10	> 10	> 10		> 10	> 10	> 10	> 10
COc1ccc(C(=O)NCCN(C)C)c2nc3ccccc3cc12	5.6	4.67	6.49	6.68	2.15	2.6	6.18	9.82	14.4	4.02
CC(C)(C)N=C(N)NC#N	> 100	> 100	> 100	> 100	> 100		> 100	> 100	> 100	> 100
O=C(CC(=O)Nc1ccccc1)NNC(Sc1ccccc1)c1cc(N=Nc2ccc(Br)cc2)ccc1O (stereo not drawn)	> 10		> 10	> 10	1.9	> 10	> 10	8.9	> 10	> 10
O=C1C(=Nc2ccc(Nc3ccccc3)cc2)Oc2ccccc21	4.53	6.07	6.8	27.7	4.9	4.3	5.96	9.73		4.56
O=C(NCCCl)O/N=C/c1cccnc1	> 100	> 100	> 100	> 100	> 100	> 100	> 100	> 100		> 100
CN(C)CCNC(=O)Cc1ccccc1Nc1c(Cl)cccc1Cl	23.5	37.1	50.6	43	36.1		38.4	36.2		29.1
